Experimental data from ChEMBL document CHEMBL4033679, “Medicinal chemistry of antischistosomal drugs: Praziquantel and oxamniquine” (Bioorg Med Chem, 2017).

Assays:
Schistosoma japonicum [1] = experiment: Antiparasitic activity against Schistosoma japonicum cercariae isolate Anhui infected in ICR mouse assessed as overall reduction rate at 100 to 400 mg/kg, po administered as single dose for 5 consecutive days measured on day 21 post dose by scanning electron microscopic method; format: functional; parameters: scale not given: the % may be the effect or the level left
[2] = Cytotoxicity against human HeLa cells assessed as cell survival at 40 uM after 24 hrs by MTT assay relative to control; format: cell-based; conditions: read-out: Survival
Schistosoma japonicum [3] = experiment: Antiparasitic activity against Schistosoma japonicum derived from infected C57BL/6 mouse assessed as parasite killing at 10 uM incubated for 30 to 60 mins measured up to 72 hrs by inverted microscopic method relative to control; format: functional
[4] = Cmax in human at 15 mg/kg, po; format: ADME, organism-based; parameters: dose 15 mg/kg, route oral; conditions: in vivo
[5] = Elimination half life in human at 15 mg/kg, po; format: ADME, organism-based; conditions: in vivo, read-out: beta t1/2
[6] = Drug excretion in human urine at 15 mg/kg, po; format: ADME, organism-based; conditions: read-out: Drug excretion
Schistosoma mansoni [7] = experiment: Antiparasitic activity against Schistosoma mansoni in patient assessed as reduction in eggs per gram of rectal mucosa at 10 mg/kg/day bid measured up to day 180 post dose relative to control; format: functional; parameters: scale not given: the % may be the effect or the level left
Schistosoma mansoni [8] = experiment: Antiparasitic activity against Schistosoma mansoni in patient assessed as cure rate by measuring reduction in eggs in stool at 10 mg/kg/day bid measured up to day 180 post dose relative to control; format: functional; parameters: scale not given: the % may be the effect or the level left
[9] = Protein binding in plasma (unknown origin); format: ADME, cell-free
[10] = Drug excretion in human urine up to 4 days; format: ADME; conditions: read-out: Drug excretion
Schistosoma mansoni [11] = experiment: In vivo antiparasitic activity against Schistosoma mansoni assessed as reduction in egg count in […] at 40 to 60 mg/kg relative to control; format: functional; parameters: scale not given: the % may be the effect or the level left
albumin = albumin (Homo sapiens, UniProt P02768); experiment: Binding affinity to albumin (unknown origin); format: ADME; conditions: read-out: PB
albumin, sequence (P02768 whole entry): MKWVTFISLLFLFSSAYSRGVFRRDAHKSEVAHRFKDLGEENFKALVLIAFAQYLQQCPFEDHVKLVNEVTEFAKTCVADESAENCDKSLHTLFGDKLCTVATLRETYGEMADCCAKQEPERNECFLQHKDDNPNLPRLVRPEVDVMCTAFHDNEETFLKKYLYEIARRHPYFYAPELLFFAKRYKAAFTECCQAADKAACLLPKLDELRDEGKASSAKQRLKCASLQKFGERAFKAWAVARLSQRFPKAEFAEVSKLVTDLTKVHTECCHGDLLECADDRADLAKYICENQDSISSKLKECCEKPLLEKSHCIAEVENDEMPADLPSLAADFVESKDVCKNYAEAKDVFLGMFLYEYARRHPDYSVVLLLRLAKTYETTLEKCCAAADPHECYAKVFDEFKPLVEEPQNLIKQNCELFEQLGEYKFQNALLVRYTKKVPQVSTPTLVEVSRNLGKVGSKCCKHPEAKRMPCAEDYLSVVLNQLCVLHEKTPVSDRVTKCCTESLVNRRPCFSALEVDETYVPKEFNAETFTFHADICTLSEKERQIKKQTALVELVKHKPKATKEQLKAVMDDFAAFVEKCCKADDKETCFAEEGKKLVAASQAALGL

[12] = Protein binding in plasma (unknown origin) relative to control; format: ADME, cell-free; conditions: read-out: PPB
[13] = Fraction absorbed in po dosed monkey; format: ADME, organism-based, Macaca mulatta; conditions: rhesus monkey, in vivo, read-out: Fabs
Schistosoma mansoni [14] = experiment: Antiparasitic activity against Schistosoma mansoni in patient assessed as reduction in eggs per gram of rectal mucosa at 60 mg/kg/day for 3 consecutive days measured up to day 180 post dose relative to control; format: functional; parameters: scale not given: the % may be the effect or the level left
[15] = Antiparasitic activity against Schistosoma in intestinal schistosomiasis patient assessed as cure rate at 40 mg/kg; format: functional
[16] = Fraction absorbed in po dosed rat; format: ADME, organism-based; conditions: in vivo, read-out: Fabs
[17] = Fraction absorbed in po dosed human; format: ADME, organism-based; conditions: in vivo, read-out: Fabs
[18] = Tmax in human; format: ADME
Plasma = experiment: Drug level in human plasma after 1 to 2 hrs; format: ADME, cell-free
[19] = Fraction absorbed in po dosed dog; format: ADME, organism-based, Canis lupus familiaris; conditions: in vivo, read-out: Fabs
Schistosoma mansoni [20] = experiment: Antiparasitic activity against Schistosoma mansoni in patient assessed as cure rate by measuring reduction in eggs in stool at 60 mg/kg/day for 3 consecutive days measured up to day 180 post dose relative to control; format: functional; parameters: scale not given: the % may be the effect or the level left
Schistosoma mansoni [21] = experiment: In vivo antiparasitic activity against Schistosoma mansoni assessed as cure rate at 40 to 60 mg/kg relative to control; format: functional
[22] = Cmax in human after 1 to 2 hrs; format: ADME
[23] = Half life in human; format: ADME
[24] = Apparent permeability in human Caco2 cells; format: ADME, cell-based; conditions: Caco-2

Work on `C[C@H]1[C@@H](OC(=O)CCC(=O)Oc2ccc3c(c2)C2CN(C(=O)C4CCCCC4)CC(=O)N2CC3)O[C@@H]2O[C@@]3(C)CC[C@H]4[C@H](C)CC[C@@H]1[C@@]24OO3` (stereo partly drawn) yielded an Activity (Schistosoma japonicum [1]) of 60%.
`O=C(C1CCCCC1)N1CC(=O)N2CCc3ccc([N+](=O)[O-])cc3C2C1` (stereo not drawn) gave a viability at 24 h, 40 µM [2] of over 85%.
With `Nc1ccc2c(c1)C1CN(C(=O)C3CCCCC3)CC(=O)N1CC2` (stereo not drawn) the viability at 24 h, 40 µM [2] was over 85%.
Compound `O=C(CCCCCN1C(=O)c2cccc3c(C4CCOCC4)ccc(c23)C1=O)Nc1ccc2c(c1)C1CN(C(=O)C3CCCCC3)CC(=O)N1CC2` (stereo not drawn) has a viability at 24 h, 40 µM [2] of over 85%.
`O=C(CCl)N1CC(=O)N2CCc3sccc3C2C1` (stereo not drawn) gave an Activity (Schistosoma japonicum [3]) of 100%.
With `CC(C)NCC1CCc2cc(CO)c([N+](=O)[O-])cc2N1` (stereo not drawn) [OXAMNIQUINE] the Cmax [4] was 1000 to 4000 ng/mL, the half-life [5] was 1.5 to 2 h and the dose excreted [6] was 0.4 to 1.9%. The Activity (Schistosoma mansoni [7]) was 42.4% and the Activity (Schistosoma mansoni [8]) was 90.3%.
For `O=C(C1CCCCC1)N1CC(=O)N2CCc3ccccc3C2C1` (stereo not drawn) [PRAZIQUANTEL], the PPB [9] was 0.19 to 3 mg/mL, the dose excreted at 96 h [10] was 80% and the Activity (Schistosoma mansoni [11]) was 90 - 95%. It also gave a fraction unbound (albumin) of 0.19 to 0.22, a fraction unbound [12] of 0.195 to 0.21 and a Fa [13] of 75 to 100%. The Activity (Schistosoma mansoni [14]) was 96.1%, the Activity [15] was 18 - 39% and the Fa [16] was 75 to 100%. For the same compound, the Fa [17] was 75 to 100%, the Tmax [18] was 3 to 4 h and the Drug uptake (Plasma) was 5 to 7 %ID. For the same compound, the Fa [19] was 75 to 100%, the Activity (Schistosoma mansoni [20]) was 100% and the Activity (Schistosoma mansoni [21]) was 60 - 90%. The Cmax [22] was 1000 ng/mL, the half-life [23] was 1.5 h and the Papp [24] was 44 ×10⁻⁶ cm/s.
